System: Escherichia coli K12
Assay: Digital same-sample filtration AST at four exposure durations (Example 8)
Type: cell-based
Details: for Both (number of wells) / Empty (number of wells) / Extracellular only (number of wells) / Intracellular only (number of wells) / Intact (most likely number of cells) / Killed (most likely number of cells): Treated 1.0 μg ETP/mL; for Both (number of wells) / Empty (number of wells) / Extracellular only (number of wells) / Intracellular only (number of wells): 12 partitions, qPCR; for Intact (most likely number of cells) / Killed (most likely number of cells): assuming one cell per non-empty sample
Experimental: The inoculum was small enough that no detectable difference in the sample's optical density at 600 mm (OD600) was detectable by a spectrophotometer with a sensitivity of 0.01 absorbance units. After an incubation at 37° C., the media became turbid with an OD600 of 0.34 absorbance units after 3.08 hours of incubation.
In this experiment, the number and volume of sample partitions was restricted, for logistical reasons, to 96 partitions 10 μL in volume, specifically the wells of a 96-well plate. A goal was chosen of having a >98% chance of ending up with at least 48 empty partitions. When all partitions are the same volume, the following formula relates the expected number of empty partitions, the partition volume, and the density of cells.
N is the total number of partitions, n is the number of empty partitions, V is the partition volume, D is the density of cells, and t is a threshold probability chosen by the practitioner. In order to achieve digital sample partitioning with the available 96-well plate, each 10 μL sample of the specimen needed to contain between 0.02 and 2.5 cells on average. In this experiment, a density of 1 cells per sample were targeted. Due to systematic bias in the conversion of OD600 to cell density, the actual density achieved in the exposure was closer to 0.281 cells per sample. The batch culture specimen itself was diluted to a density of 28.1 CFU/mL (0.0281 cells/μL) to achieve the target cells/sample density.
To begin the AST protocol, the contrived clinical specimen (containing 28.1 CFU/mL) was physically partitioned into the 96 samples by transferring 10 μL of the specimen, in 96 separate transfers (actually […] with a multichannel pipette), to each well of a separable 96-well microtiter plate. Then, the entire plate was sealed with a RNase/DNase-free plastic, adhesive sealing membrane.
Each well of the 96-well microtiter plate contained 15 μL of Mueller-Hinton Broth (MHB) growth media, placed there before the specimen was partitioned. Half of the wells (48) contained 0 μg/mL of dissolved ETP antibiotic and served as reference condition antibiotic exposures. The other half of the wells contained 1.67 μg/mL of ETP (for a final concentration of 1.0 μg/mL) and served as 48 treated condition antibiotic exposures. The separable plate comprised 4 detachable sections bearing 3 columns and 8 rows of wells.
The treated and reference conditions were arranged so that each of the four groups of wells contained 12 treated and 12 reference conditions. In total, there would eventually be eight experimental conditions: 4 exposure durations of 0, 30, 60, and 120 min, each with 12 treated and 12 reference conditions.
Immediately after the specimen had been partitioned, one section (24 wells in total) of the separable 96-well plate was detached to serve as the 0-minute set of conditions. The rest of the separable 96-well plate was incubated at 37° C. Then, the following step was repeated for each time point of 0, 30, 60, and 120 minutes.
The entire volume of each antibiotic exposure was transferred to a Millipore® 96-well sterile polystyrene MultiScreenHTS® filter plate (Millipore-Sigma MSGVS2210). Each well of the filter plate contained a hydrophilic polyvinylidene fluoride (PVDF) filter membrane with a 0.22 μm pore size. A 96-well polypropylene microtiter plate was affixed to the bottom of the filter plate. The filter plate was promptly centrifuged at 2200 relative centrifugal force for 3 minutes to speed the passage of the antibiotic exposure sample through the filter and into 96-well microtiter plate. The collected fluid was called the “filtrate.” […]

C[C@@H](O)[C@H]1C(=O)N2C(C(=O)O)=C(S[C@@H]3CN[C@H](C(=O)Nc4cccc(C(=O)O)c4)C3)[C@H](C)[C@H]12 [ETP, ertapenem]
susceptibility call (1.0 μg/mL ETP, overall p-value vs 0.005): susceptible | Both (number of wells) (exposure duration 0 min): 0 | Empty (number of wells) (exposure duration 0 min): 12 | Extracellular only (number of wells) (exposure duration 0 min): 0 | Intracellular only (number of wells) (exposure duration 0 min): 0 | Intact (most likely number of cells) (exposure duration 0 min): 0 | Killed (most likely number of cells) (exposure duration 0 min): 0 | Both (number of wells) (exposure duration 30 min): 0 | Empty (number of wells) (exposure duration 30 min): 7 | Extracellular only (number of wells) (exposure duration 30 min): 4 | Intracellular only (number of wells) (exposure duration 30 min): 1 | Intact (most likely number of cells) (exposure duration 30 min): 1 | Killed (most likely number of cells) (exposure duration 30 min): 4 | Both (number of wells) (exposure duration 60 min): 0 | Empty (number of wells) (exposure duration 60 min): 8 | Extracellular only (number of wells) (exposure duration 60 min): 4 | Intracellular only (number of wells) (exposure duration 60 min): 0 | Intact (most likely number of cells) (exposure duration 60 min): 0 | Killed (most likely number of cells) (exposure duration 60 min): 4 | Both (number of wells) (exposure duration 120 min): 0 | Empty (number of wells) (exposure duration 120 min): 8 | Extracellular only (number of wells) (exposure duration 120 min): 4 | Intracellular only (number of wells) (exposure duration 120 min): 0 | Intact (most likely number of cells) (exposure duration 120 min): 0 | Killed (most likely number of cells) (exposure duration 120 min): 4
